From US20240279220A1, “INDOLE COMPOUNDS AND METHODS OF USE” (Genzyme Corporation, priority 2021, published 2024)

The molecules below were run on NBD1/3D (assay: Aggregation analysis using differential static light scattering (DSLS), NBD1 thermal stability). Settings: ΔTagg versus DMSO control; compound at 100 μM.
Format: binding, Human
Procedure: Purified recombinant NBD1 was produced using previously described methods (A. Schmidt, J. L. Mendoza, P. J. Thomas (2011) Biochemical and Biophysical Approaches to Probe CFTR Structure (365-376) M. D. Amaral, K. Kunzelmann (eds.), Cystic Fibrosis, Methods in Molecular Biology 741, Springer Science+Business Media). The effect of test compounds on thermal stability of NBD1 was evaluated by differential static light scattering (DSLS) using the Harbinger Stargazer-384 instrument (Epiphyte Three, Toronto, Canada).
Test compounds were dissolved and diluted to desired concentrations in 100% DMSO. The compounds or DMSO controls (100 nL) were stamped into wells of a […] low volume optical plate (Corning Inc., Corning, NY) using the Echo 555 acoustic liquid handler (Labcyte Inc., San Jose, CA).
NBD1 protein was diluted to 0.2 mg/ml in S200 buffer (50 mM Tris-HCl, 150 mM NaCl, 5 mM MgCl2, 2 mM ATP, 2 mM DTT, pH7.6) containing 1% glycerol. 10 uL of protein solution was aliquoted into the 384-well plate harboring the test compounds and 10 uL mineral oil was overlayed onto the protein solution, using the epMotion robotic liquid handler (Eppendorf North America, Hauppauge, NY). After placing into the Stargazer instrument, the plate was heated at 1° C. per minute to 70° C. Images were captured from 25° C. to 70° C. every 0.5° C. At the end of the experiment run, instrument software integrated image files and analyzed data automatically. A […] regression curve was generated for each well, representing the increase in light scattering over time. A temperature of aggregation (Tagg) was calculated based on the inflection point of the curve. To better compare data across experiments the average Tagg for DMSO control wells was calculated and subtracted from values for wells containing compounds to obtain a “ΔTagg” value. These ΔTagg values reflect stabilizing efficacy of the compounds.
For `Cc1c(Oc2ccc(F)c(-c3ncc(C(C)c4cccc([C@@H]5C[C@@H]5C(=O)O)c4F)[nH]3)c2)c(F)cc2[nH]ccc12` (single isomer, unassigned) [Example 138C, cis-2-(2-fluoro-3-(1-(2-(2-fluoro-5-((6-fluoro-4-methyl-1H-indol-5-yl)oxy)phenyl)-1H-imidazol-5-yl)ethyl)phenyl)cyclopropane-1-carboxylic acid], the “DSLS NBD1/3D Human Stability delta-T (° C.) @ 100 (μM)” value (“DSLS NBD1/3D Human Stability delta-T” below) was “C (C: ≤5° C.)”. `Cc1c(Oc2ccc(F)c(-c3ncc(C(C)c4cccc([C@H]5C[C@H]5C(=O)O)c4F)[nH]3)c2)c(F)cc2[nH]ccc12` (single isomer, unassigned) [Example 138D, cis-2-(2-fluoro-3-(1-(2-(2-fluoro-5-((6-fluoro-4-methyl-1H-indol-5-yl)oxy)phenyl)-1H-imidazol-5-yl)ethyl)phenyl)cyclopropane-1-carboxylic acid] was tested, and the “DSLS NBD1/3D Human Stability delta-T” value was “C (C: ≤5° C.)”. In the case of `Cc1c(Oc2ccc(F)c(-c3ncc(C(C)c4cccc([C@H]5C[C@@H]5C(=O)O)c4F)[nH]3)c2)c(F)cc2[nH]ccc12` (single isomer, unassigned) [Example 139G, trans-2-(2-fluoro-3-(1-(2-(2-fluoro-5-((6-fluoro-4-methyl-1H-indol-5-yl)oxy)phenyl)-1H-imidazol-5-yl)ethyl)phenyl)cyclopropane-1-carboxylic acid], the “DSLS NBD1/3D Human Stability delta-T” value is reported as “C (C: ≤5° C.)”. In the case of `Cc1c(Oc2ccc(F)c(-c3ncc(C(C)c4cccc([C@H]5CC5C(=O)O)c4F)[nH]3)c2)c(F)cc2[nH]ccc12` (single isomer, unassigned) [Example 139H, trans-2-(2-fluoro-3-(1-(2-(2-fluoro-5-((6-fluoro-4-methyl-1H-indol-5-yl)oxy)phenyl)-1H-imidazol-5-yl)ethyl)phenyl)cyclopropane-1-carboxylic acid], the “DSLS NBD1/3D Human Stability delta-T” value is reported as “C (C: ≤5° C.)”. `Cc1c(Oc2ccc(F)c(-c3ncc(C4(c5cccc(CCC(=O)O)c5)CCOC(C)C4)[nH]3)c2)c(F)cc2[nH]ccc12` (single isomer, unassigned) [Example 151, 3-(3-(4-(2-(2-fluoro-5-((6-fluoro-4-methyl-1H-indol-5-yl)oxy)phenyl)-1H-imidazol-5-yl)-2-methyltetrahydro-2H-pyran-4-yl)phenyl)propanoic acid] was tested, and the “DSLS NBD1/3D Human Stability delta-T” value was “B (B: 5-10° C.)”. With `C[C@H]1C[C@](c2cccc(CCC(=O)O)c2)(c2cnc(-c3cc(Oc4c(F)cc5[nH]ccc5c4F)ccc3F)[nH]2)CCO1` (single isomer, unassigned) [Example 152] the “DSLS NBD1/3D Human Stability delta-T” value was “B (B: 5-10° C.)”. `Cc1c(Oc2ccc(F)c(-c3nc(C4(c5cccc(CCC(=O)O)c5)CCOC(C)C4)c[nH]3)c2)c(F)cc2[nH]ccc12` (single isomer, unassigned) [Example 154, 3-(3-(4-(2-(2-fluoro-5-((6-fluoro-4-methyl-1H-indol-5-yl)oxy)phenyl)-1H-imidazol-4-yl)-2-methyltetrahydro-2H-pyran-4-yl)phenyl)propanoic acid] was tested, and the “DSLS NBD1/3D Human Stability delta-T” value was “A (A: T ≥ 10° C.)”. With `Cc1nc(-c2cc(Oc3c(F)cc4[nH]ccc4c3F)ccc2F)[nH]c1C(O)c1cccc(CCC(=O)O)c1F` (single isomer, unassigned) [Example 179, 3-(3-((2-(5-((4,6-difluoro-1H-indol-5-yl)oxy)-2-fluorophenyl)-4-methyl-1H-imidazol-5-yl)(hydroxy)methyl)-2-fluorophenyl)propanoic acid] the “DSLS NBD1/3D Human Stability delta-T” value was “B (B: 5-10° C.)”. `Cc1c(Oc2ccc(F)c(-c3ncc(C(C)(O)c4cccc(CCC(=O)O)c4)[nH]3)c2)c(F)cc2[nH]ccc12` (single isomer, unassigned) [Example 215A, 3-(3-(1-(2-(2-Fluoro-5-((6-fluoro-4-methyl-1H-indol-5-yl)oxy)phenyl)-1H-imidazol-5-yl)-1-hydroxyethyl)phenyl)propanoic acid] was tested, and the “DSLS NBD1/3D Human Stability delta-T” value was “B (B: 5-10° C.)”. With `CC(O)(c1cccc(CCC(=O)O)c1)c1cnc(-c2cc(Oc3c(F)cc4[nH]ccc4c3F)ccc2F)[nH]1` (single isomer, unassigned) [Example 216A, 3-(3-(1-(2-(5-((4,6-difluoro-1H-indol-5-yl)oxy)-2-fluorophenyl)-1H-imidazol-5-yl)-1-hydroxyethyl)phenyl) propanoic acid] the “DSLS NBD1/3D Human Stability delta-T” value was “B (B: 5-10° C.)”. For `CC(O)(c1cccc(CCC(=O)O)c1)c1cnc(-c2cc(Oc3c(F)cc4[nH]ccc4c3F)ccc2F)[nH]1` (single isomer, unassigned) [Example 216B, 3-(3-(1-(2-(5-((4,6-difluoro-1H-indol-5-yl)oxy)-2-fluorophenyl)-1H-imidazol-5-yl)-1-hydroxyethyl)phenyl) propanoic acid], the “DSLS NBD1/3D Human Stability delta-T” value was “A (A: T ≥ 10° C.)”. In the case of `CC(c1nnc(-c2cc(Oc3c(F)cc4[nH]ccc4c3F)ccc2F)[nH]1)c1cccc(CCC(=O)O)c1F` (single isomer, unassigned) [Example 252B, 3-(3-(1-(5-(5-((4,6-difluoro-1H-indol-5-yl)oxy)-2-fluorophenyl)-4H-1,2,4-triazol-3-yl)ethyl)-2-fluorophenyl)propanoic acid], the “DSLS NBD1/3D Human Stability delta-T” value is reported as “C (C: ≤5° C.)”. For `CC(c1cn(C)c(-c2cc(Oc3c(F)cc4[nH]ccc4c3F)ccc2F)n1)c1cccc(CCC(=O)O)c1F` (single isomer, unassigned) [Example 278A, 3-(3-(1-(2-(5-((4,6-difluoro-1H-indol-5-yl)oxy)-2-fluorophenyl)-1-methyl-1H-imidazol-4-yl)ethyl)-2-fluorophenyl)propanoic acid], the “DSLS NBD1/3D Human Stability delta-T” value was “C (C: ≤5° C.)”. For `Cc1c(Oc2cccc(-c3ccn(Cc4cccc(CCC(=O)O)c4)n3)c2)ccc2[nH]ccc12` [Example 1, 3-(3-((3-(3-((4-Methyl-1H-indol-5-yl)oxy)phenyl)-1H-pyrazol-1-yl)methyl)phenyl)propanoic acid], the “DSLS NBD1/3D Human Stability delta-T” value was “B (B: 5-10° C.)”. With `Cc1c(Oc2cccc(-c3ccn(C(C)c4cccc(CCC(=O)O)c4)n3)c2)ccc2[nH]ccc12` (stereo not shown) [Example 2, 3-(3-(1-(3-(3-((4-methyl-1H-indol-5-yl)oxy)phenyl)-1H-pyrazol-1-yl)ethyl)phenyl)propanoic acid] the “DSLS NBD1/3D Human Stability delta-T” value was “B (B: 5-10° C.)”. With `Cc1c(Oc2cccc(-c3ccnn3C(C)c3cccc(CC(=O)O)c3)c2)ccc2[nH]ccc12` (stereo not shown) [Example 3, 2-(3-(1-(5-(3-((4-methyl-1H-indol-5-yl)oxy)phenyl)-1H-pyrazol-1-yl)ethyl)phenyl)acetic acid] the “DSLS NBD1/3D Human Stability delta-T” value was “C (C: ≤5° C.)”. For `Cc1c(Oc2cccc(-c3ccn(C(C)c4cccc(CC(=O)O)c4)n3)c2)ccc2[nH]ccc12` (stereo not shown) [Example 4, 2-(3-(1-(3-(3-((4-methyl-1H-indol-5-yl)oxy)phenyl)-1H-pyrazol-1-yl)ethyl)phenyl)acetic acid], the “DSLS NBD1/3D Human Stability delta-T” value was “B (B: 5-10° C.)”. For `Cc1c(Oc2cccc(-c3ccn(Cc4cccc(CC(=O)O)c4)n3)c2)ccc2[nH]ccc12` [Example 5, 2-(3-((3-(3-((4-methyl-1H-indol-5-yl)oxy)phenyl)-1H-pyrazol-1-yl)methyl)phenyl)acetic acid], the “DSLS NBD1/3D Human Stability delta-T” value was “B (B: 5-10° C.)”. For `Cc1c(Oc2cccc(-c3ccn(Cc4cccc(CCCO)c4)n3)c2)ccc2[nH]ccc12` [Example 6, 3-(3-((3-(3-((4-Methyl-1H-indol-5-yl)oxy)phenyl)-1H-pyrazol-1-yl)methyl)phenyl)propan-1-ol], the “DSLS NBD1/3D Human Stability delta-T” value was “C (C: ≤5° C.)”.
